The term IC50 denotes the concentration that inhibits the measured activity by half. A high value points to a need for much substance.

We go through four molecules from patent publication US5495000A, “Anticoagulant peptides” (Merrell Pharmaceuticals Inc., priority 1995, dated 1996).

The test concerns Fibrin-Clot. Kind of test: Fibrin-Clot Inhibition. It counts as biochemical.

*1 amine or outer side, *2 acyl side, *3 side chain or, on linkers, in order; H or OH if unused. Where a SMILES comes first, the peptide text is derived from it. [ ]: non-standard residue; d: D form. Cha = N[C@@H](CC1CCCCC1)C(=O)O; Suc = O=C(CCC(=O)[*:2])[*:1]

`CC[C@H](C)[C@H](NC(=O)[C@H](CC(=O)O)NC(=O)[C@H](CC(=O)O)NC(=O)[C@H](CC(C)C)NC(=O)[C@@H]1CCCN1C(=O)[C@@H](Cc1ccccc1)NC(=O)[C@H](CCC(=O)O)NC(=O)[C@H](CCC(=O)O)NC(=O)[C@H](Cc1ccccc1)NC(=O)CCC(=O)O)C(=O)N[C@@H](CCC(=O)O)C(=O)N[C@@H](CCC(N)=O)C(=O)O` [Example 6, Suc-Phe-Glu-Glu-phe-Pro-Leu-Asp-Asp-Ile-Glu-Gln-OH] (Suc-FEE[dF]PLDDIEQ-OH) showed an IC50 of 2300 nM.
Molecule `CC[C@H](C)[C@H](NC(=O)[C@H](CC(=O)O)NC(=O)[C@H](CC(=O)O)NC(=O)[C@H](CC(C)C)NC(=O)[C@H](CO)NC(=O)[C@H](Cc1ccccc1)NC(=O)[C@@H]1CCCN1C(=O)[C@H](CCC(=O)O)NC(=O)[C@H](Cc1ccccc1)NC(=O)CCC(=O)O)C(=O)N[C@@H](CCC(=O)O)C(=O)N[C@@H](CCC(N)=O)C(=O)O` [Example 5, Suc-Phe-Glu-Pro-Phe-Ser-Leu-Asp-Asp-Ile-Glu-Gln-OH] (Suc-FEPFSLDDIEQ-OH) showed a half-maximal inhibitory concentration (IC50) of 1800 nM.
`CC[C@H](C)[C@H](NC(=O)[C@H](CC(=O)O)NC(=O)[C@H](CC(=O)O)NC(=O)[C@H](CC(C)C)NC(=O)[C@H](CO)NC(=O)[C@H](Cc1ccccc1)NC(=O)[C@H](CCC(=O)O)NC(=O)[C@H](CCC(=O)O)NC(=O)[C@H](Cc1ccccc1)NC(=O)CCC(=O)O)C(=O)N[C@@H](CCC(=O)O)C(=O)N[C@@H](CCC(N)=O)C(=O)O` [Example 4, Suc-Phe-Glu-Glu-Phe-Ser-Leu-Asp-Asp-Ile-Glu-Gln-OH] (Suc-FEEFSLDDIEQ-OH) showed a 50% inhibitory concentration (IC50) of 2700 nM.
In the case of `CC(C)C[C@H](NC(=O)[C@H](CO)NC(=O)[C@H](Cc1ccccc1)NC(=O)[C@H](CCC(=O)O)NC(=O)[C@H](CCC(=O)O)NC(=O)[C@H](Cc1ccccc1)NC(=O)CCC(=O)O)C(=O)N[C@@H](CC(=O)O)C(=O)N[C@@H](CC(=O)O)C(=O)N[C@@H](CC1CCCCC1)C(=O)N[C@@H](CCC(=O)O)C(=O)N[C@@H](CCC(N)=O)C(=O)O` [Example 7, Suc-Phe-Glu-Glu-Phe-Ser-Leu-Asp-Asp-Cha-Glu-Gln-OH] (Suc-FEEFSLDD[Cha]EQ-OH), the half-maximal inhibitory concentration (IC50) came to 7100 nM.
